This assay has as its target T1, Recombinant human renin (Homo sapiens, UniProt P00797).
T1 construct: isolate the active form (residues 67-406); made in house; host or cells: FreeStyle 293-F cells (transient expression of pcDNA3.1(+)/hREN)
T1 sequence (P00797 67-406): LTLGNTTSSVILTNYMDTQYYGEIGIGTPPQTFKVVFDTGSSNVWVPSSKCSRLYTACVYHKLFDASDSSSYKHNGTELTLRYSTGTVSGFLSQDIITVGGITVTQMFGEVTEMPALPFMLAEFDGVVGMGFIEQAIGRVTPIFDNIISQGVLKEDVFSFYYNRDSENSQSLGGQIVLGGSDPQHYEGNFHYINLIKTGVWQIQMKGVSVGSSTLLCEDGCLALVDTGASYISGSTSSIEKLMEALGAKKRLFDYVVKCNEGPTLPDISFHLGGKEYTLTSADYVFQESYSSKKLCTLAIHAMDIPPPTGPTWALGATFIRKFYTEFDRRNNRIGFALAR
Description: In vitro enzymatic activity assay of renin inhibitors (fluorogenic peptide substrate). It counts as biochemical. The settings on record: read-out: IC50 of Exemplified Compounds Against Renin. The method, boiled down: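 Recombinant human renin (3 nM final) pre-incubated 10 min at 37 °C with compounds in pH 7.4 Hepes/EDTA/DTT/0.1 mg/mL BSA/Brij35 buffer (optionally plus 2% BSA), 5% DMSO final; fluorogenic QXL520/HiLyteFluo488 peptide substrate added.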
Turning to `COCCCn1c([C@@H]2CCCN(C(=O)[C@@H]3CN(S(=O)(=O)c4cccc(NC(C)=O)c4)C[C@H]3N)C2)nc2ccccc21` [Compound 429, N-(3-((3S,4R)-3-amino-4-((R)-3-(1-(3-methoxypropyl)-1H-benzo[d]imidazol-2-yl)piperidine-1-carbonyl)pyrrolidin-1-ylsulfonyl)phenyl)acetamide], the IC50 is less than 100 nM.

As for `COCCCn1c([C@@H]2CCCN(C(=O)[C@@H]3CN(S(=O)(=O)c4cccc(-c5ccnc(C)n5)c4)C[C@H]3N)C2)nc2ccccc21` [Compound 430, ((3R,4S)-4-amino-1-(3-(2-methylpyrimidin-4-yl)phenylsulfonyl)pyrrolidin-3-yl)((R)-3-(1-(3-methoxypropyl)-1H-benzo[d]imidazol-2-yl)piperidin-1-yl)methanone], the IC50 lay within 100 to 1000 nM.

For `COCCCn1c([C@@H]2CCCN(C(=O)[C@@H]3CN(S(=O)(=O)c4cccc(-c5nnc(C)o5)c4)C[C@H]3N)C2)nc2ccccc21` [Compound 431, ((3R,4S)-4-amino-1-(3-(5-methyl-1,3,4-oxadiazol-2-yl)phenylsulfonyl)pyrrolidin-3-yl)((R)-3-(1-(3-methoxypropyl)-1H-benzo[d]imidazol-2-yl)piperidin-1-yl)methanone], the half-maximal inhibitory concentration (IC50) is greater than 1000 nM.

In the case of `COCCCn1c([C@@H]2CCCN(C(=O)C[C@@H](N)COc3ccccc3C(=O)OC)C2)nc2ccccc21` [Compound 432, methyl 2-((R)-2-amino-4-((R)-3-(1-(3-methoxypropyl)-1H-benzo[d]imidazol-2-yl)piperidin-1-yl)-4-oxobutoxy)benzoate], the IC50 was greater than 1000 nM.

For the molecule `COCCCn1c([C@@H]2CCCN(C(=O)C[C@@H](N)COc3cccc(OC)c3)C2)nc2ccccc21` [Compound 433, (R)-3-amino-4-(3-methoxyphenoxy)-1-((R)-3-(1-(3-methoxypropyl)-1H-benzo[d]imidazol-2-yl)piperidin-1-yl)butan-l-one], the IC50 is greater than 1000 nM.

For `COCCCn1c([C@@H]2CCCN(C(=O)C[C@@H](N)COc3nc4ccccc4[nH]3)C2)nc2ccccc21` [Compound 434, (R)-4-(1H-benzo[d]imidazol-2-yloxy)-3-amino-1-((R)-3-(1-(3-methoxypropyl)-1H-benzo[d]imidazol-2-yl)piperidin-1-yl)butan-1-one], the IC50 fell in the range of 100 to 1000 nM.

With `COCCCn1c([C@@H]2CCCN(C(=O)C[C@H](N)Cc3ccc(-c4csc(N5CC[C@H](O)C5)n4)cc3)C2)nc2ccccc21` [Compound 435, (R)-3-amino-4-(4-(2-((S)-3-hydroxypyrrolidin-1-yl)thiazol-4-yl)phenyl)-1-((R)-3-(1-(3-methoxypropyl)-1H-benzo[d]imidazol-2-yl)piperidin-1-yl)butan-1-one], the IC50 was less than 100 nM.

As for `COCCCn1c([C@@H]2CCCN(C(=O)C[C@H](N)Cc3ccc(-c4ccc(N5CCNC5=O)cc4)cc3)C2)nc2ccccc21` [Compound 436, 1-(4′-((R)-2-amino-4-((R)-3-(1-(3-methoxypropyl)-1H-benzo[d]imidazol-2-yl)piperidin-1-yl)-4-oxobutyl)biphenyl-4-yl)imidazolidin-2-one], the IC50 was less than 100 nM.

`COCCCn1c([C@@H]2CCCN(C(=O)C[C@H](N)Cc3ccc(-c4ccnc(O)c4)cc3)C2)nc2ccccc21` [Compound 437, (R)-3-amino-4-(4-(2-hydroxypyridin-4-yl)phenyl)-1-((R)-3-(1-(3-methoxypropyl)-1H-benzo[d]imidazol-2-yl)piperidin-1-yl)butan-1-one]: the IC50 is less than 100 nM.

As for `COCCCn1c([C@@H]2CCCN(C(=O)C[C@H](N)Cc3ccc(-c4ccc5c(c4)NC(=O)CO5)cc3)C2)nc2ccccc21` [Compound 438, 6-(4-((R)-2-amino-4-((R)-3-(1-(3-methoxypropyl)-1H-benzo[d]imidazol-2-yl)piperidin-1-yl)-4-oxobutyl)phenyl)-2H-benzo[b][1,4]oxazin-3(4H)-one], the IC50 is less than 100 nM.

Take `COCCCn1c([C@@H]2CCCN(C(=O)C[C@H](N)Cc3ccc(-c4ccc5c(c4)OCCN5C)cc3)C2)nc2ccccc21` [Compound 439, (R)-3-amino-1-((R)-3-(1-(3-methoxypropyl)-1H-benzo[d]imidazol-2-yl)piperidin-1-yl)-4-(4-(4-methyl-3,4-dihydro-2H-benzo[b][1,4]oxazin-7-yl)phenyl)butan-1-one]: the IC50 is less than 100 nM.

Consider `COCCCn1c([C@@H]2CCCN(C(=O)C[C@H](N)Cc3ccc(-c4ccc(N5CCNC5=O)cc4)cc3)C2)nc2c(F)cccc21` [Compound 441, 1-(4′-((R)-2-amino-4-((R)-3-(4-fluoro-1-(3-methoxypropyl)-1H-benzo[d]imidazol-2-yl)piperidin-l-yl)-4-oxobutyl)biphenyl-4-yl)imidazolidin-2-one], for which the IC50 is less than 100 nM.

`COCCCn1c([C@@H]2CCCN(C(=O)C[C@H](N)Cc3ccc(-c4ccc5c(c4)SCC(=O)N5)cc3)C2)nc2c(F)cccc21` [Compound 442, 7-(4-((R)-2-amino-4-((R)-3-(4-fluoro-1-(3-methoxypropyl)-1H-benzo[d]imidazol-2-yl)piperidin-1-yl)-4-oxobutyl)phenyl)-2H-benzo[b][1,4]thiazin-3(4H)-one]: the IC50 is less than 100 nM.

On to `COCCCn1c([C@@H]2CCCN(C(=O)C[C@H](N)Cc3ccc(-c4ccc5c(c4)OCC(=O)N5)cc3)C2)nc2c(F)cccc21` [Compound 443, 7-(4-((R)-2-amino-4-((R)-3-(4-fluoro-1-(3-methoxypropyl)-1H-benzo[d]imidazol-2-yl)piperidin-1-yl)-4-oxobutyl)phenyl)-2H-benzo[b][1,4]oxazin-3(4H)-one], for which the IC50 is less than 100 nM.

As for `COCCCn1c([C@@H]2CCCN(C(=O)C[C@H](N)Cc3ccc(-c4ccnc(O)c4)cc3)C2)nc2c(F)cccc21` [Compound 444, (R)-3-amino-1-((R)-3-(4-fluoro-1-(3-methoxypropyl)-1H-benzo[d]imidazol-2-yl)piperidin-1-yl)-4-(4-(2-hydroxypyridin-4-yl)phenyl)butan-1-one], the IC50 is less than 100 nM.

As to `CC(=O)NCCn1c([C@@H]2CCCN(C(=O)C[C@H](N)Cc3ccc(-c4ccc(O)nc4)cc3)C2)nc2ccccc21` [Compound 445, N-(2-(2-((R)-1-((R)-3-amino-4-(4-(6-hydroxypyridin-3-yl)phenyl)butanoyl)piperidin-3-yl)-1H-benzo[d]imidazol-1-yl)ethyl)acetamide], the IC50 fell in the range of 100 to 1000 nM.

Turning to `CC(=O)NCCn1c([C@@H]2CCCN(C(=O)C[C@H](N)Cc3ccc(-c4ccc(N)nc4)cc3)C2)nc2ccccc21` [Compound 446, N-(2-(2-((R)-1-((R)-3-amino-4-(4-(6-aminopyridin-3-yl)phenyl)butanoyl)piperidin-3-yl)-1H-benzo[d]imidazol-1-yl)ethyl)acetamide], the IC50 lay within 100 to 1000 nM.

Turning to `CN1CCOc2cc(-c3ccc(C[C@@H](N)CC(=O)N4CCC[C@@H](c5nc6ccccc6n5CCC(N)=O)C4)cc3)ccc21` [Compound 447, 3-(2-((R)-1-((R)-3-amino-4-(4-(4-methyl-3,4-dihydro-2H-benzo[b][1,4]oxazin-7-yl)phenyl)butanoyl)piperidin-3-yl)-1H-benzo[d]imidazol-1-yl)propanamide], the IC50 was in the range of 100 to 1000 nM.

In the case of `CC(=O)NCCn1c([C@@H]2CCCN(C(=O)C[C@H](N)Cc3ccc(-c4ccc5c(c4)OC(F)(F)O5)cc3)C2)nc2ccccc21` [Compound 448, N-(2-(2-((R)-1-((R)-3-amino-4-(4-(2,2-difluorobenzo[d][1,3]dioxol-5-yl)phenyl)butanoyl)piperidin-3-yl)-1H-benzo[d]imidazol-1-yl)ethyl)acetamide], the IC50 lay in the range of 100 to 1000 nM.

For `CC(=O)NCCn1c([C@@H]2CCCN(C(=O)C[C@H](N)Cc3ccc(-c4ccc5c(c4)OCCO5)cc3)C2)nc2ccccc21` [Compound 449, N-(2-(2-((R)-1-((R)-3-amino-4-(4-(2,3-dihydrobenzo[b][1,4]dioxin-6-yl)phenyl)butanoyl)piperidin-3-yl)-1H-benzo[d]imidazol-1-yl)ethyl)acetamide], the IC50 was 100 to 1000 nM.

In the case of `CC(=O)NCCn1c([C@@H]2CCCN(C(=O)C[C@H](N)Cc3ccc(-c4cnc(N)nc4)cc3)C2)nc2ccccc21` [Compound 450, N-(2-(2-((R)-1-((R)-3-amino-4-(4-(2-aminopyrimidin-5-yl)phenyl)butanoyl)piperidin-3-yl)-1H-benzo[d]imidazol-1-yl)ethyl)acetamide], the IC50 was 100 to 1000 nM.

With `COCCCn1c([C@@H]2CCCN(C(=O)C[C@H](N)Cc3ccc(-c4ccc(O)nc4)cc3)C2)nc2c(F)cccc21` [Compound 451, (R)-3-amino-1-((R)-3-(4-fluoro-1-(3-methoxypropyl)-1H-benzo[d]imidazol-2-yl)piperidin-1-yl)-4-(4-(6-hydroxypyridin-3-yl)phenyl)butan-1-one], the IC50 was less than 100 nM.

Take `COCCCn1c([C@@H]2CCCN(C(=O)C[C@H](N)Cc3ccc(-c4ccc(N)nc4)cc3)C2)nc2c(F)cccc21` [Compound 452, (R)-3-amino-4-(4-(6-aminopyridin-3-yl)phenyl)-1-((R)-3-(4-fluoro-1-(3-methoxypropyl)-1H-benzo[d]imidazol-2-yl)piperidin-1-yl)butan-1-one]: the IC50 was less than 100 nM.

As to `COCCCn1c([C@@H]2CCCN(C(=O)C[C@H](N)Cc3ccc(-c4ccc5c(c4)OCCN5C)cc3)C2)nc2c(F)cccc21` [Compound 453, (R)-3-amino-1-((R)-3-(4-fluoro-1-(3-methoxypropyl)-1H-benzo[d]imidazol-2-yl)piperidin-1-yl)-4-(4-(4-methyl-3,4-dihydro-2H-benzo[b][1,4]oxazin-7-yl)phenyl)butan-1-one], the half-inhibitory concentration (IC50) was less than 100 nM.

The term IC50 denotes the midpoint of a concentration-inhibition curve.

(Values after patent US8138168B1 (Takeda Pharmaceutical Company Limited, priority 2007, dated 2012).)
